How the values were obtained:
Type in all cases: cell-based
[1] = system: E. coli 7MP producing Class A and Class C beta-lactamase enzymes; assay: Time kill study against E. coli 7MP; conditions: for Effect on bacterial count (in words): alone or in combination
Description: (§1) In general, the antibacterial activity of compositions according to invention was studied by performing time kill studies. In a typical time kill study, the freshly grown cultures were diluted to the required cell density (initial starting inoculum) in cation adjusted Muller Hinton broth medium (BD, USA). The antibacterial agents (either alone or in combination) at the required concentrations were added into the culture-containing medium. The samples were incubated under shaking condition (120 rpm) at 37° C. Enumeration of viable bacterial count was done every 2 hour by diluting in normal saline and plating on to the Tryptic Soya Agar plates (BD, USA). The plates were incubated for 24 hours to arrive at a viable bacterial count. The results are expressed in terms of log10 CFU/ml. In general, the decrease of 1 log10 CFU/ml corresponds to 90% killing of bacteria. Similarly, 2 log10 CFU/ml reductions indicates to 99% killing of bacteria and 3 log10 CFU/ml reductions is equal to 99.9% killing of bacteria.

[2] = system: K. pneumoniae B-88 producing metallo beta-lactamase enzymes; assay: Time kill study against K. pneumoniae B-88; conditions: for Bacterial count (Log10 CFU/ml) 0 hours / Change in Log10 CFU/ml over 0 hour count after 24 hours / Bacterial count (Log10 CFU/ml) 2 hours / Bacterial count (Log10 CFU/ml) 4 hours / Bacterial count (Log10 CFU/ml) 6 hours / Bacterial count (Log10 CFU/ml) 24 hours: 2 mcg/ml alone; for Effect on bacterial count (in words): summary of Table 1, alone or in combination
Description: as §1

[3] = system: A. baumanni 13301 producing Carbapenem hydrolysing beta-lactamase enzymes; assay: Time kill study against A. baumanni 13301; conditions: for Bacterial count (Log10 CFU/ml) 0 hours / Change in Log10 CFU/ml over 0 hour count after 24 hours / Bacterial count (Log10 CFU/ml) 2 hours / Bacterial count (Log10 CFU/ml) 4 hours / Bacterial count (Log10 CFU/ml) 6 hours / Bacterial count (Log10 CFU/ml) 8 hours / Bacterial count (Log10 CFU/ml) 24 hours: 4 mcg/ml alone; for Effect on bacterial count (in words): summary of Table 3, alone or in combination
Description: as §1

Row | SMILES | Change in Log10 CFU/ml over 0 hour count after 24 hours ([1]; Table 2, 2 mcg/ml alone) [Log10 CFU/ml] | Bacterial count (Log10 CFU/ml) 2 hours ([1]; Table 2, 2 mcg/ml alone) [Log10 CFU/ml] | Bacterial count (Log10 CFU/ml) 4 hours ([1]; Table 2, 2 mcg/ml alone) [Log10 CFU/ml] | Bacterial count (Log10 CFU/ml) 6 hours ([1]; Table 2, 2 mcg/ml alone) [Log10 CFU/ml] | Effect on bacterial count (in words) ([1]; summary of Table 2) | Bacterial count (Log10 CFU/ml) 0 hours [2] [Log10 CFU/ml] | Change in Log10 CFU/ml over 0 hour count after 24 hours [2] [Log10 CFU/ml] | Bacterial count (Log10 CFU/ml) 2 hours [2] [Log10 CFU/ml] | Bacterial count (Log10 CFU/ml) 4 hours [2] [Log10 CFU/ml] | Bacterial count (Log10 CFU/ml) 6 hours [2] [Log10 CFU/ml] | Bacterial count (Log10 CFU/ml) 24 hours [2] [Log10 CFU/ml] | Effect on bacterial count (in words) [2] | Bacterial count (Log10 CFU/ml) 0 hours [3] [Log10 CFU/ml] | Change in Log10 CFU/ml over 0 hour count after 24 hours [3] [Log10 CFU/ml] | Bacterial count (Log10 CFU/ml) 2 hours [3] [Log10 CFU/ml] | Bacterial count (Log10 CFU/ml) 4 hours [3] [Log10 CFU/ml] | Bacterial count (Log10 CFU/ml) 6 hours [3] [Log10 CFU/ml] | Bacterial count (Log10 CFU/ml) 8 hours [3] [Log10 CFU/ml] | Bacterial count (Log10 CFU/ml) 24 hours [3] [Log10 CFU/ml] | Effect on bacterial count (in words) [3] | also measured
1 | NCCONC(=O)[C@@H]1CC[C@@H]2CN1C(=O)N2OS(=O)(=O)O [Compound (E)] | 2.22 | 8.02 | 9.15 | 9.11 | could not reduce the bacterial count | 7.28 | 1.26 | 7.60 | 8.26 | 8.18 | 8.54 | could not reduce the bacterial count | 6.88 | 2.16 | 8.04 | 8.74 | 8.90 | 9.20 | 9.04 | could not reduce the bacterial count | Bacterial count (Log10 CFU/ml) 24 hours ([1]; Table 2, 2 mcg/ml alone): 9.30 Log10 CFU/ml
2 | NC(=O)[C@@H]1CC[C@@H]2CN1C(=O)N2OS(=O)(=O)O [Avibactam, reference compound] |  |  |  |  |  |  |  |  |  |  |  |  |  |  |  |  |  |  |  |  | Change in Log10 CFU/ml over 0 hour count after 8 hours ([1]; Table 5, 4 mcg/ml alone): 2.28 Log10 CFU/ml; Bacterial count (Log10 CFU/ml) 2 hours ([1]; Table 5, 4 mcg/ml alone): 7.90 Log10 CFU/ml; Bacterial count (Log10 CFU/ml) 4 hours ([1]; Table 5, 4 mcg/ml alone): 9.23 Log10 CFU/ml; Bacterial count (Log10 CFU/ml) 6 hours ([1]; Table 5, 4 mcg/ml alone): 9.30 Log10 CFU/ml; Bacterial count (Log10 CFU/ml) 8 hours ([1]; Table 5, 8 hours, 4 mcg/ml alone): 9.36 Log10 CFU/ml; Effect on bacterial count (in words) ([1]; summary of Table 5, throughout the duration of the study): did not reduce the bacterial count
3 | N#C[C@@H]1CC[C@@H]2CN1C(=O)N2OS(=O)(=O)O [Compound (B)] |  |  |  |  | could not reduce the bacterial count | 7.28 | 2.12 | 8.27 | 9.04 | 9.18 | 9.40 | could not reduce the bacterial count | 6.88 | 2.16 | 8.04 | 8.74 | 8.90 | 9.20 | 9.04 | could not reduce the bacterial count | Change in Log10 CFU/ml over 0 hour count after 24 hours ([1]; Table 2, 4 mcg/ml alone): 2.28 Log10 CFU/ml; Bacterial count (Log10 CFU/ml) 2 hours ([1]; Table 2, 4 mcg/ml alone): 7.90 Log10 CFU/ml; Bacterial count (Log10 CFU/ml) 4 hours ([1]; Table 2, 4 mcg/ml alone): 9.23 Log10 CFU/ml; Bacterial count (Log10 CFU/ml) 6 hours ([1]; Table 2, 4 mcg/ml alone): 9.30 Log10 CFU/ml; Bacterial count (Log10 CFU/ml) 24 hours ([1]; Table 2, 4 mcg/ml alone): 9.36 Log10 CFU/ml
4 | O=C(NNC(=O)[C@@H]1CC[C@@H]2CN1C(=O)N2OS(=O)(=O)O)[C@@H]1CCCNC1 [Compound (C)] | −3.54 | 6.30 | 4.93 | 4.23 | could not reduce the bacterial count | 7.28 | 1.26 | 7.60 | 8.26 | 8.18 | 8.54 | could not reduce the bacterial count | 6.88 | 2.35 | 8.13 | 8.85 | 9.19 | 9.02 | 9.23 | could not reduce the bacterial count | Bacterial count (Log10 CFU/ml) 24 hours ([1]; Table 2, 2 mcg/ml alone): 3.54 Log10 CFU/ml
